Counter-ions that a name gives are not always drawn.
System: HCT116
Conditions: 72 h
In short: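 HCT116 cells were seeded at 250 per well in 1536-well plates and left 5 h to attach. CellTiter-Glo luminescence was scaled to vehicle (0%) and positive control (-100%), then pattern-corrected. IC50 and maximal efficacy came from four-parameter Hill fits.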

| Structure (SMILES) | IC50 cell viability (ICRF193 0 nM) | IC50 cell viability (ICRF193 200 nM) |
| --- | --- | --- |
| CN[C@H](CC(C)C)C(=O)N[C@H]1C(=O)N[C@@H](CC(N)=O)C(=O)N[C@H]2C(=O)N[C@H]3C(=O)N[C@H](C(=O)N[C@H](C(=O)O)c4cc(O)cc(O)c4-c4cc3ccc4O)[C@H](O)c3ccc(c(Cl)c3)Oc3cc2cc(c3O[C@@H]2O[C@H](CO)[C@@H](O)[C@H](O)[C@H]2O[C@H]2C[C@](C)(N)[C@H](O)[C@H](C)O2)Oc2ccc(cc2Cl)[C@H]1O [Vancomycin hydrochloride] | > 45.8 µM | > 45.8 µM |
| COc1cc2/c(=N/c3ccc(Br)cc3F)nc[nH]c2cc1OCC1CCN(C)CC1 [Vandetanib] | > 45.8 µM | > 45.8 µM |
| O=C(O)CC/C=C\CC[C@@H]1[C@@H](N2CCCCC2)[C@@H](O)C[C@@H]1OCc1ccc(-c2ccccc2)cc1 [Vapiprost hydrochloride] | > 45.8 µM | > 45.8 µM |
| CCCc1nc(C)c2c(=O)nc(-c3cc(S(=O)(=O)N4CCN(CC)CC4)ccc3OCC)[nH]n12 [Vardenafil] | > 45.8 µM | > 45.8 µM |
| CCCC[C@@H](O)/C=C(C)/C=C/C=C/C(=O)N1CCCC1=O [Variotin] | > 45.8 µM | > 45.8 µM |
| CC(=O)O[C@H]1C[C@@H]2CC[C@@H]3[C@H](CC[C@@]4(C)[C@H]3C[C@H]([N+]3(C)CCCCC3)[C@@H]4OC(C)=O)[C@@]2(C)C[C@@H]1N1CCCCC1 [Vecuronium bromide] | > 45.8 µM | > 45.8 µM |
| COC[C@H]1C[C@@H](c2nc(-c3ccc4c(c3)COc3cc5c(ccc6nc([C@@H]7CC[C@H](C)N7C(=O)[C@@H](NC(=O)OC)C(C)C)[nH]c65)cc3-4)c[nH]2)N(C(=O)[C@H](NC(=O)OC)c2ccccc2)C1 [Velpatasvir] | > 45.8 µM | > 45.8 µM |
| CCCS(=O)(=O)Nc1ccc(F)c(C(=O)c2c[nH]c3ncc(-c4ccc(Cl)cc4)cc23)c1F [Vemurafenib] | > 45.8 µM | > 45.8 µM |
| CC1(C)CCC(CN2CCN(c3ccc(C(=O)NS(=O)(=O)c4ccc(NCC5CCOCC5)c([N+](=O)[O-])c4)c(Oc4cnc5[nH]ccc5c4)c3)CC2)=C(c2ccc(Cl)cc2)C1 [Venetoclax (ABT-199)] | > 45.8 µM | > 45.8 µM |
| COc1ccc(C(CN(C)C)C2(O)CCCCC2)cc1 (stereo not drawn) [Venlafaxine] | > 45.8 µM | > 45.8 µM |
| COc1ccc(C(=O)N2CCN(c3ccc4c(c3)CCC(=O)N4)CC2)cc1OC [Vesnarinone] | > 45.8 µM | > 45.8 µM |
| C=CC(N)CCC(=O)O (stereo not drawn) [Vigabatrin] | > 45.8 µM | > 45.8 µM |
| N#Cc1ccc2[nH]cc(CCCCN3CCN(c4ccc5oc(C(N)=O)cc5c4)CC3)c2c1 [Vilazodone Hydrochloride] | > 45.8 µM | > 45.8 µM |
| N#C[C@@H]1CCCN1C(=O)CNC12CC3CC(CC(O)(C3)C1)C2 [Vildagliptin] | > 45.8 µM | > 45.8 µM |
| CCOC(=O)C1=C[C@]2(CC)CCCN3CCc4c(n1c1ccccc41)[C@@H]32 [Vinpocetine] | > 45.8 µM | > 45.8 µM |
| CS(=O)(=O)c1ccc(C(=O)Nc2ccc(Cl)c(-c3ccccn3)c2)c(Cl)c1 [Vismodegib] | > 45.8 µM | > 45.8 µM |
| Cc1ncc(CO)c(CO)c1O [Vitamin B6] | > 45.8 µM | > 45.8 µM |
| OCC(CO)N[C@H]1C[C@](O)(CO)[C@@H](O)[C@H](O)[C@H]1O [Voglibose] | > 45.8 µM | > 45.8 µM |
| CCOC(=O)N[C@@H]1CC[C@@H]2[C@@H](C1)C[C@H]1C(=O)O[C@H](C)[C@H]1[C@H]2/C=C/c1ccc(-c2cccc(F)c2)cn1 [Vorapaxar Sulfate] | > 45.8 µM | > 45.8 µM |
| C[C@@H](c1ncncc1F)[C@](O)(Cn1cncn1)c1ccc(F)cc1F [Voriconazole] | > 45.8 µM | > 45.8 µM |
| CC(=O)CC(c1ccccc1)c1c(O)c2ccccc2oc1=O (stereo not drawn) [Warfarin sodium] | > 45.8 µM | > 45.8 µM |
| COC(=O)C1=C(C)NC(C)=C(C(=O)OCCc2ccc(N3CCN(C(c4ccccc4)c4ccccc4)CC3)cc2)C1c1cccc([N+](=O)[O-])c1 (stereo not drawn) [Watanidipine] | > 45.8 µM | > 45.8 µM |
| FC(F)(F)c1cccc(C2=CCN(CCc3ccc4ccccc4c3)CC2)c1 [Xaliproden hydrochloride] | > 45.8 µM | > 45.8 µM |
| CC1=C[C@H](O)CC(C)(C)[C@H]1/C=C/C(C)=C/C=C/C(C)=C/C=C/C=C(C)/C=C/C=C(C)/C=C/C1=C(C)C[C@@H](O)CC1(C)C [Xanthophyll] | > 45.8 µM | > 45.8 µM |
| CCOC(=O)CN[C@@H](C(=O)N1CC[C@H]1C(=O)NCc1ccc(/C(N)=N\O)cc1)C1CCCCC1 [Ximelagatran] | > 45.8 µM | > 45.8 µM |
| Cc1cccc(C)c1NC(=O)c1cc(S(N)(=O)=O)c(Cl)cc1O [Xipamide] | > 45.8 µM | > 45.8 µM |
| Cc1cccc(C)c1NC1=NCCCS1 [Xylazine] | > 45.8 µM | > 45.8 µM |
| Cc1cc(C(C)(C)C)cc(C)c1CC1=NCCN1 [Xylometazoline hydrochloride] | > 45.8 µM | > 45.8 µM |
| COC(=O)[C@@H]1[C@H]2C[C@H]3c4[nH]c5ccccc5c4CCN3C[C@@H]2CC[C@@H]1O [Yohimbine] | > 45.8 µM | > 45.8 µM |

Source: the supplement of paper PMC12137928
